“And” between values parts separate entries of the source, which are not always exact repeats. Identical values can stand only once. Like-named read-outs stand apart in the source and are kept apart here.
What was measured:
[1] = calibration compound; cited from earlier work
[2] = biological target: T1, M^pro (Severe acute respiratory syndrome coronavirus 2, UniProt P0DTD1); assay: biochemical; assay type: binding
[3] = biological target: T2, SARS-CoV-2 M^pro (Severe acute respiratory syndrome coronavirus 2, UniProt P0DTD1); assay: Mpro FRET inhibition, continuous fluorometric assay (Fluorolog-3), enzyme from pET21-M^pro vector; assay type: biochemical; details: read-out: Ki (μM)^b
[4] = biological target: T2, SARS-CoV-2 M^pro; assay: biochemical; details: M^pro from pMal-M^pro vector
[5] = biological target: T3, cathepsin L (CatL) (Homo sapiens, UniProt P07711); assay: Cathepsin L inhibition, fluorometric assay; assay type: biochemical; details: read-out: Ki CatL
T3 construct: purchased Calbiochem (Merck Millipore)
T3 sequence (P07711 114-288 limits assumed): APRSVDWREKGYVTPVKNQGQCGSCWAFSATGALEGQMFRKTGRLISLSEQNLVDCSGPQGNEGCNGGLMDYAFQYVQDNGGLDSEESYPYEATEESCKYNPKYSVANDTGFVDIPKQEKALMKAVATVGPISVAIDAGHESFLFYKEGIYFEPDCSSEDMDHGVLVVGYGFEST
T3 sequence (P07711 292-333 limits assumed): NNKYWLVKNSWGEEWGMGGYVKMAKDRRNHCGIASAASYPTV

[6] = biological target: T4, cathepsin B (CatB) (Homo sapiens, UniProt P07858); assay: Cathepsin B inhibition, fluorometric assay; assay type: biochemical; details: read-out: Ki CatB
T4 construct: purchased Calbiochem (Merck Millipore)

[7] = biological target: T1, M^pro; assay: Binding to M^pro by ultracentrifugation (sedimentation method)
[8] = biological target: Zika Virus NS2B/NS3 (bZiPro) (Zika virus, UniProt A0A024B7W1); assay: Zika virus protease inhibition, fluorometric assay; assay type: biochemical; details: 20 μM
Sequence of Zika Virus NS2B/NS3 (bZiPro) (A0A024B7W1 1425-1464): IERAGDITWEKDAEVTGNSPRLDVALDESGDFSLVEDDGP
Sequence of Zika Virus NS2B/NS3 (bZiPro) (A0A024B7W1 1503-1680): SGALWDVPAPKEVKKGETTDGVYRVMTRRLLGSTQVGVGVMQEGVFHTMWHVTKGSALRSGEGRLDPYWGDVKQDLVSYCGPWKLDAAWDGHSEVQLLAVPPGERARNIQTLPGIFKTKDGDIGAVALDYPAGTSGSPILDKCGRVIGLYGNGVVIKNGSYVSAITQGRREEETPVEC

[9] = biological target: human matriptase (MT-SP1) (Homo sapiens, UniProt Q9Y5Y6); assay: Matriptase inhibition, fluorometric assay; assay type: biochemical; details: 20 μM
Sequence of human matriptase (MT-SP1) (Q9Y5Y6 615-855 limits assumed, other chains not shown): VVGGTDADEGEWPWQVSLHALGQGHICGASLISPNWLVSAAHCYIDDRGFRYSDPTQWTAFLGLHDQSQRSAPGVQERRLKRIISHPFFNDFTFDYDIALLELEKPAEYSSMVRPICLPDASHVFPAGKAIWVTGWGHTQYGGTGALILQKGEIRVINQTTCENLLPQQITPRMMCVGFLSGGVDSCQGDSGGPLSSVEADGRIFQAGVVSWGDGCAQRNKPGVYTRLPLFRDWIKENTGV

[10] = biological target: cruzain (CRZ) (Trypanosoma cruzi, UniProt P25779); assay: Cruzain inhibition, fluorometric assay; assay type: biochemical; details: read-out: Ki CRZ
Sequence of cruzain (CRZ) (P25779 123-467): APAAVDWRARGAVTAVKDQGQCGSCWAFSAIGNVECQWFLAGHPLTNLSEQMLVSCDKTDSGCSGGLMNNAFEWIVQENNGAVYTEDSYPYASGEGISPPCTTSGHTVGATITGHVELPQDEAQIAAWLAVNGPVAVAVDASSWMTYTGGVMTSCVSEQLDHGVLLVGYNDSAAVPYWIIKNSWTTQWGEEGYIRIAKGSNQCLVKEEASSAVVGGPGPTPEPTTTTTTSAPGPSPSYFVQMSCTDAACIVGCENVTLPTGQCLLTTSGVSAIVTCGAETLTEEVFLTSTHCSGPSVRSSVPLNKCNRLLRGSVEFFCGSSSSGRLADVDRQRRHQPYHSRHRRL

[11] = in vitro; details: human
[12] = test system: SARS-CoV-2; assay: microbe, parasite or virus in culture; assay type: cell-based; details: for EC50: Huh-7-ACE2, 24h p.t., MOI=0.1; for virus titer Mean (%): mean of Exp.1-3; for virus titer (pfu/ml) / virus titer (%) of conc 0: single experiments
[13] = biological target: T5, rhodesain (RhD) (Trypanosoma brucei rhodesiense, UniProt Q95PM0); assay: Rhodesain inhibition, fluorometric assay; assay type: biochemical; details: read-out: Ki RhD
T5 construct: made in house
T5 sequence (Q95PM0 entry or part of it): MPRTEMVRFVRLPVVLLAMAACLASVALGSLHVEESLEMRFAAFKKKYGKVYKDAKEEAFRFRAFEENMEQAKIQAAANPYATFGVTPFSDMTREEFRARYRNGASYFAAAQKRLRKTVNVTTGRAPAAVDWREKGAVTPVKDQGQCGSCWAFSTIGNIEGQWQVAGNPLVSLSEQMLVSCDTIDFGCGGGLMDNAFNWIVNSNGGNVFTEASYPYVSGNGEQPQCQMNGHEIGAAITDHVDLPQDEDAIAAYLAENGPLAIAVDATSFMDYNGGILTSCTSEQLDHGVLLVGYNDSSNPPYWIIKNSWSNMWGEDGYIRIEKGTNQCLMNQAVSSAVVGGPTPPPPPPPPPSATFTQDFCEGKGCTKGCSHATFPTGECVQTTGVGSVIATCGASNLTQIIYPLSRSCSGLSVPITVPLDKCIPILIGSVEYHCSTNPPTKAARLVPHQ

[14] = biological target: T1, M^pro; assay type: biochemical; details: for Fluorescence reading (progress curve): triplicate wells
Procedure: Buffer: 20 mM Tris, 0.1 mM EDTA, 1 mM DTT, 200 mM NaCl pH = 7.5. For the dilution assay Nirmatrelvir[21] was used as a reversible control and LM188[54] as an irreversible control (Fig. 10).
The incubation was done at RT for 30 min in assay buffer. DMSO was used as a control. After incubation the Enzyme/Inhibitor (or DMSO) mixtures were diluted 100-fold in assay buffer.
The preincubation was done in assay buffer (20 mM Tris, 0.1 mM EDTA, 1 mM DTT, 200 mM NaCl, pH = 7.5), at RT for 30 min. After incubation the mixtures were diluted […]
proteolytic activity of the enzyme was measured as described for the enzymatic assays using the […]
activity was measured over 1 h.
Inhibition assay58. Trypsin: Enzyme: bovine trypsin purchased from Sigma-Aldrich (St. Louis, […]
Substrate: Cbz-FR-AMC purchased from Bachem (Bubendorf, Switzerland), [Substrate]: 40 µM […]
The activity against bovine trypsin was tested at 20 µM inhibitor concentration. […]

## CC(=O)c1ccccc1 [Acetophenone]
[1]
  Chromatographic Hydrophobicity Index (publication): 64.90

## c1ccc2[nH]cnc2c1 [Benzimidazole]
[1]
  Chromatographic Hydrophobicity Index (publication): 30.71

## CCCC(=O)c1ccccc1 [Butyrophenone]
[1]
  Chromatographic Hydrophobicity Index (publication): 88.49

## O=C(N[C@@H](Cc1ccccc1)C(=O)N[C@H](/C=C/[N+](=O)[O-])CCc1ccccc1)OCc1ccccc1 [FGA86]
[2]; 25 µM
  change of Tm of M^pro: 0.9 ± 0.4 °C
[2]; 25 µM, read-out: DTm (°C)
  ΔTm at 25 µM: 0.9 °C
[2]; 100 μM
  change of Tm of M^pro: −1.7 ± 0.4 °C
[3]
  Ki: 2.67 ± 0.29 µM
[4]
  inhibition at 20 µM: 17%

## CC(C)CC(NC(=O)C=Cc1ccccc1)C(=O)NC(C=C[N+](=O)[O-])CC1CCNC1=O (centres unmarked) [FGA145]
[5]
  Ki: 0.053 ± 0.0041 µM
[6]
  Ki: 0.206 ± 0.041 µM
[7]; ligand concentration 0.5
  Fraction bound, Absorption: 0.01689
[7]; ligand concentration 1
  Fraction bound, Absorption: 0.05068
[7]; ligand concentration 5
  Fraction bound, Absorption: 0.2419
[7]; ligand concentration 10
  Fraction bound, Absorption: 0.373
[7]; ligand concentration 25
  Fraction bound, Absorption: 0.7297
[7]; ligand concentration 50
  Fraction bound, Absorption: 0.9595
[7]; ligand concentration 100
  Fraction bound, Absorption: 1.009
[7]; ultracentrifugation, 25 °C
  Kd: 11.8 ± 1.05 µM
[8]
  bZiPro: n.i. (no inhibition (<10%) was observed at a concentration of 20 μM)
[2]; 25 µM
  change of Tm of M^pro: −1.1 ± 0.2 °C
[2]; 25 µM, read-out: DTm (°C)
  ΔTm at 25 µM: -1.1 °C
[2]; 100 μM
  change of Tm of M^pro: −3.7 ± 0.1 °C
[9]
  MT-SP1: n.i. (no inhibition (<10%) was observed at a concentration of 20 μM)
[10]
  Ki: 0.0126 ± 0.0015 µM
[11]
  CC50: > 100 µM
[3]
  Ki: 9.82 ± 1.5 µM
[4]
  Ki: 3.71 ± 0.38 µM
[12]
  EC50: 11.7 µM
[12]; Severe acute respiratory syndrome coronavirus 2, 24 h
  EC50: 11.7 µM
[12]; conc 0.1
  virus titer Mean (%): 99%
  virus titer (pfu/ml): 1400000 pfu/ml and 1000000 pfu/ml and 1070000 pfu/ml
[12]; conc 0.5
  virus titer Mean (%): 119%
  virus titer (%) of conc 0: 160% and 90% and 107%
  virus titer (pfu/ml): 1600000 pfu/ml and 1800000 pfu/ml and 1070000 pfu/ml
[12]; conc 1
  virus titer Mean (%): 120%
  virus titer (pfu/ml): 1400000 pfu/ml and 1500000 pfu/ml
[12]; conc 5
  virus titer Mean (%): 108.333%
  virus titer (%) of conc 0: 120% and 75% and 130%
  virus titer (pfu/ml): 1200000 pfu/ml and 1500000 pfu/ml and 1300000 pfu/ml
[12]; conc 10
  virus titer Mean (%): 25.6667%
  virus titer (pfu/ml): 400000 pfu/ml and 200000 pfu/ml and 270000 pfu/ml
[12]; conc 50
  virus titer Mean (%): 0.07467%
  virus titer (%) of conc 0: 0.2% and 0.01% and 0.014%
[12]; conc 100
  virus titer Mean (%): 0.017%
  virus titer (%) of conc 0: 0.006% and 0.02% and 0.025%
[13]
  Ki: 0.00163 ± 0.00022 µM

## CC(C)C[C@H](NC(=O)[C@@H](NC(=O)[C@H](C)NC(=O)OC(C)(C)C)C(C)C)C(=O)N[C@H](/C=C/[N+](=O)[O-])CCc1ccccc1 [FGA159]
[2]; 5 µM, read-out: DTm (°C)
  ΔTm at 5 µM: 2.6 °C
[2]; 25 µM, read-out: DTm (°C)
  ΔTm at 25 µM: 2.5 °C
[2]; concentration range between 5 and 100 μM
  change of Tm of M^pro: 2.5 ± 0.2 °C
[3]
  Ki: 1.19 ± 0.18 µM
[4]
  Ki: 21.8 ± 1.5 µM

## CC(C)CC(NC(=O)C=Cc1ccccc1)C(=O)NC(C=C[N+](=O)[O-])CCc1ccccc1 (centres unmarked) [FGA177]
[2]; 25 µM, read-out: DTm (°C)
  ΔTm at 25 µM: 0.1 °C
[2]; range of 25 to 100 μM
  change of Tm of M^pro: 0.1 ± 0.2 °C
[3]
  Ki: 8.59 ± 1.6 µM
[4]
  inhibition at 20 µM: 25%

## COc1cccc2[nH]c(C(=O)N[C@@H](CC(C)C)C(=O)N[C@H](/C=C/S(=O)(=O)c3ccccc3)C[C@@H]3CCNC3=O)cc12 [LM188, reference compound]
[14]; Time 180.071 s
  Fluorescence reading (progress curve): 253 and 247
[14]; Time 210.081 s
  Fluorescence reading (progress curve): 256 and 250
[14]; Time 240.095 s
  Fluorescence reading (progress curve): 254 and 247
[14]; Time 270.113 s
  Fluorescence reading (progress curve): 256 and 248
[14]; Time 300.118 s
  Fluorescence reading (progress curve): 253 and 248 and 250
[14]; Time 330.126 s
  Fluorescence reading (progress curve): 256 and 248 and 247
[14]; Time 360.134 s
  Fluorescence reading (progress curve): 249 and 246 and 248
[14]; Time 390.141 s
  Fluorescence reading (progress curve): 253 and 250 and 249
[14]; Time 420.149 s
  Fluorescence reading (progress curve): 251 and 247 and 248
[14]; Time 450.157 s
  Fluorescence reading (progress curve): 255 and 249 and 250
[14]; Time 480.18 s
  Fluorescence reading (progress curve): 255 and 244
[14]; Time 2881.2 s
  Fluorescence reading (progress curve): 249 and 222 and 233
[14]; Time 2911.21 s
  Fluorescence reading (progress curve): 247 and 222 and 232
[14]; Time 2941.22 s
  Fluorescence reading (progress curve): 252 and 222 and 230
[14]; Time 2971.24 s
  Fluorescence reading (progress curve): 250 and 221 and 231
[14]; Time 3001.25 s
  Fluorescence reading (progress curve): 248 and 221 and 233
[14]; Time 3031.26 s
  Fluorescence reading (progress curve): 247 and 219 and 231
[14]; Time 3061.27 s
  Fluorescence reading (progress curve): 249 and 220 and 232
[14]; Time 3091.28 s
  Fluorescence reading (progress curve): 249 and 219 and 230
[14]; Time 3121.29 s
  Fluorescence reading (progress curve): 250 and 222 and 232
[14]; Time 3151.3 s
  Fluorescence reading (progress curve): 246 and 219 and 232
[14]; Time 3181.31 s
  Fluorescence reading (progress curve): 246 and 220 and 232
[14]; Time 3211.32 s
  Fluorescence reading (progress curve): 246 and 221 and 231
[14]; Time 3241.33 s
  Fluorescence reading (progress curve): 243 and 219 and 230
[14]; Time 3271.34 s
  Fluorescence reading (progress curve): 248 and 221 and 229
[14]; Time 3301.35 s
  Fluorescence reading (progress curve): 245 and 216 and 230
[14]; Time 3331.36 s
  Fluorescence reading (progress curve): 246 and 218 and 230
[14]; Time 3361.37 s
  Fluorescence reading (progress curve): 243 and 219 and 232
[14]; Time 3391.39 s
  Fluorescence reading (progress curve): 244 and 216 and 230
[14]; Time 3421.39 s
  Fluorescence reading (progress curve): 241 and 217 and 230
[14]; Time 3451.41 s
  Fluorescence reading (progress curve): 245 and 215 and 227
[14]; Time 3481.42 s
  Fluorescence reading (progress curve): 249 and 217 and 230
[14]; Time 3511.43 s
  Fluorescence reading (progress curve): 242 and 218 and 229
[14]; Time 3541.44 s
  Fluorescence reading (progress curve): 244 and 216 and 229
[14]; Time 3571.45 s
  Fluorescence reading (progress curve): 243 and 214 and 228
[14]; preincubation 30 min
  recovery of M^pro activity after 100-fold dilution: no visible recovery of activity

## c1ccc(-c2nnn[nH]2)cc1 [Phenyltetrazole]
[1]
  Chromatographic Hydrophobicity Index (publication): 20.18

## CCC(=O)c1ccccc1 [Propiophenone]
[1]
  Chromatographic Hydrophobicity Index (publication): 78.41

## Cn1c(=O)c2[nH]cnc2n(C)c1=O [Theophylline]
[1]
  Chromatographic Hydrophobicity Index (publication): 15.76

## CCCCC(=O)c1ccccc1 [Valerophenone]
[1]
  Chromatographic Hydrophobicity Index (publication): 97.67
